Assay results reported in US20220016118A1, “COMBINATION OF A MCL-1 INHIBITOR AND MIDOSTAURIN, USES AND PHARMACEUTICAL COMPOSITIONS THEREOF” (LES LABORATOIRES SERVIER, priority 2018, published 2022).

How the values were obtained:
MV4-11 FLT3-ITD = test: Dynamic BH3 profiling (cytochrome C release); type: cell-based; details: 4 hours after treatment with Midostaurin (100 nM)
Description: Cells were subjected to BH3 profiling assay 4 hours after treatment with Midostaurin (100 nM). Increase in cytochrome C release is a quantitative measure of mitochondrial apoptosis initiation.
BH3 profiling was performed in black 384-well plates according to A. Letai method (https://letailab.dana-farber.org/bh3-profiling.html). Briefly, cells ([…]) were seeded in 6-well plates in 5 mL of complete RPMI medium and exposed to Midostaurin and S63845 given alone or in combination. Control cells received DMSO. Cells were incubated for 6 hours, collected, washed twice in PBS and resuspended in MEB buffer (150 mM mannitol, 10 mM HEPES-KOH pH 7.5, 150 mM KCl, 1 mM EGTA, 1 mM EDTA, 0.1% BSA, 5 mM succinate) to a final density 1×10^6/mL. Cells (15 μL) were added to 384-well plate containing containing peptides % BH3 mimetics and 15 μL of 0.002% digitonin in MEB buffer. Cells were incubated for 1 hour in 25° C. and subsequently fixed in 10 μL of 4% formaldehyde in PBS for 10 minutes. To terminate the fixation, 10 μL of N2 buffer (1.7M Tris, 1.25M Glycine pH 9.1) was added and cells were left at room temperature for 5 minutes. […] Cytochrome C release was measured by flow cytometry.

MV-4-11 cells = test: Western blot of FLT3-mediated signaling and Bcl-2 family proteins; type: cell-based; details: 6 hours
Description: B. Western blot analysis of FLT3-mediated signaling pathways and expression of Bcl-2 family proteins in MV-4-11 cells treated for 6 hours with Midostaurin. S63845 alone or in combination. De-phosphorylation of FLT3-ITD lead to inactivation of STAT5 and MAPK and was accompanied by significant downregulation of MAPK-mediated phosphorylation of Mcl-1 at Thr163, site required for Mcl-1 stability. Consequently, Midostaurin reduced level of Mcl-1.
Cells (3×10^6/well) were seeded in 6-well plates in 5 mL of complete RPMI medium and exposed to Midostaurin and S63845 given alone or in combination. Control cells received DMSO. Cells were incubated for 6 hours and then collected, washed twice in PBS and lysed in RIPA buffer (ThermoFisher Scientific) supplemented with 1× Protease and Phosphatase Inhibitor cocktail (ThermoFisher Scientific). Lysates were kept on ice for 20 minutes with vortexing every 5 minutes, then briefly sonicated and centrifuged at 13500 rpm for 15 minutes. Supernatant was collected and protein content was measured using […]. Cell lysates (30-50 μg protein per well) were resolved by electrophoresis on 4%-20% gradient precast sodium dodecyl sulfate-polyacrylamide gels (Bio-Rad, Hercules, Calif.) and transferred to PVDF membrane (Bio-Rad). […]

Molm13 = test: Caspase-Glo 3/7 caspase3.7 activity, dose matrix, Molm13; type: cell-based; details: single agent, Molm13 (FLT3-ITD), 6 hours treatment, highest dose 3 uM
Description: (§1) Both compounds were dissolved in 100% DMSO (Sigma, Catalog number D2650) at concentrations of 10 mM and stored at −20° C. until use.
(§2) The cell line Molm13 used in this study was purchased from Leibniz-Institut DSMZ (ACC 554) and MV-4-11 from American Type Cell Collection (ATCC® CRL-9591). The cell lines were cultured at 37° C. in a 5% CO2 incubator, Molm13 in RPMI (Lonza, 12-702F) and MV-4-11 in IMDM (Hyclone, SH30228.01) media complemented with 10% fetal bovine serum (Seradigm, 1500-500). The cells were passaged twice a week and the medium was changed every 2 to 3 days.
(§3) Caspase3.7 activity was measured by the Caspase-Glo® 3/7 kit from Promega (G8092), 9000 cells/well were dispensed into clear-bottom 384-well black plates (Greiner, #781091) in triplicates with 30 μl/well growth media. […] Then 30 ul/well of the Caspase-Glo® 3/7 reagents was added to each well at the end and luminescence was recorded on an Envision plate reader (Perkin Elmer). Measured Luminescence is proportional to the amount of caspase activity present. […]
(§4) The Compound A and Compound B “dose matrix”, consisted of the following: both compounds were subjected to a 11 dose 1:3 serial dilution with the highest dose of 3 uM and down to no-compound control. […] The percent caspase3.7 activity was calculated using the following calculation: (I-control/compound treated)×100. […]

AML with FLT3 mutation = details: added to cytarabine and daunorubicin induction and cytarabine consolidation; cited from earlier work
solid tumors = details: single agent, Phase I trial; cited from earlier work
MV-4-11 = test: Caspase-Glo 3/7 caspase3.7 activity, dose matrix, MV-4-11; type: cell-based; details: single agent, MV-4-11 (FLT3-ITD), 6 hours treatment, highest dose 3 uM
Description: as §1, §2, §3, §4

Structure (SMILES) | mitochondrial priming to Mcl-1 inhibitor S63845 and Bim peptide (MV4-11 FLT3-ITD) | level of pro-apoptotic Bim (MV-4-11 cells) | level of Mcl-1 (MV-4-11 cells; MV-4-11 cells) | induction of caspase activity, maximum increase (Molm13) | overall survival (AML with FLT3 mutation) | efficacy (solid tumors) | toxicity (solid tumors) | induction of caspase activity, maximum increase (MV-4-11)
CO[C@]1(O)[C@H](N(C)C(=O)c2ccccc2)C[C@H]2O[C@]1(C)n1c3ccccc3c3c4c(c5c6ccccc6n2c5c31)C(=O)NC4 [Compound A, 4′-N-benzoylstaurosporine] | increased | increased | reduced | 33% | increased overall survival | limited efficacy | low toxicity | 24%
COc1ccccc1-c1nccc(COc2ccccc2C[C@@H](Oc2ncnc3sc(-c4ccc(F)cc4)c(-c4ccc(OCCN5CCN(C)CC5)c(Cl)c4C)c23)C(=O)O)n1 [Compound B, (2R)-2-{[(5Sa)-5-{3-chloro-2-methyl-4-[2-(4-methylpiperazin-1-yl)ethoxy]phenyl}-6-(4-fluorophenyl)thieno[2,3-d]pyrimidin-4-yl]oxy}-3-(2-{[2-(2-methoxyphenyl)pyrimidin-4-yl]methoxy}phenyl)propanoic acid] |  |  |  | 87% |  |  |  | 89%
